Reference: US9449726B2, “100Mo compounds as accelerator targets for production of 99mTc” (Washington University, priority 2013, dated 2016)
Entries after “also recorded” stand apart in the source; their conditions may differ.

Test system: normal CD1 mice
Assay: SPECT/CT imaging of ^99mTc-MDP in small animals
Format: in vivo
Method: Preparation of ^99mTc-methylene diphosphonate (^99mTc-MDP) and Animal Imaging Studies. All animal studies were approved by the Animal Studies Committee at Washington University. ^99mTc-MDP was prepared using commercially available kits. 3.9 mg of a sterile lyophilized powder containing methylene diphosphonate as the main constituent, under the trade name MDP-BRACCO™ (Bracco Diagnostics Inc., Princeton, N.J.) was dissolved in 135 μL saline solution. From this solution 10 μL was pipetted and added to the 400 μL of 1.6×10^8Bq (4.3 mCi)^99mTcO4^− containing saline solution. Radio-ITLC was performed on this solution as described above. 100 μL of the prepared radiopharmaceutical with an activity of 2.0×10^7 Bq (0.55 mCi) was injected into one month old normal CD1 mice via tail vein followed by small animal SPECT/CT imaging (nanoSPECT, Bioscan, Washington D.C.). CT scans were performed using a tube voltage of 45 kV and a scan time of 1.5 seconds per projection while the animals were anesthetized by isofluorane. SPECT data were collected by monitoring in as helical scan at 45 projections and 60 seconds per projection using a 9-pinhole low energy collimator. SPECT images were collected for 45 minutes at 1.5, 3 and 4 hours post injection. The CT and SPECT images were reconstructed and colocalized using InVivoScope (inviCRO, LLC, Boston Mass.) and HiSPECT (Bioscan, Washington, D.C.).
In these experiments, activities of 2.0×10^7Bq of ^99mTc were injected into each mouse. Scan times of 45 minutes were employed in imaging while each mouse was anesthetized with isoflurane. FIG. 5 illustrates SPECT images of mice imaged at (a) 1.5 hours (b) 3 hours and (c) 4 hours post injection.

What does the source list for O.O.O=P([O-])([O-])CP(=O)([O-])[O-].[99Tc+4] [^99mTc-MDP, ^99mTc-methylene diphosphonate]?
SPECT images: uniformity of uptake in the backbone (CD1 mice, tail vein): relatively uniform; SPECT images: activity at the earliest time point (CD1 mice, tail vein, 1.5 hours post injection (FIG. 5A)): activity in the kidneys and bladder as expected; also recorded: activity was seen in the excretory organs as shown in FIG. 5A, namely the kidneys and bladder; SPECT images: change of activity as time progressed (CD1 mice, tail vein, 3 hours and 4 hours post injection (FIGS. 5B and 5C)): clearance of radioactivity from these organs and increased accumulation in the bones and joints; SPECT images: regional uptake in the skeleton (CD1 mice, tail vein, backbone and joints): high activity uptake in the cervical, thoracic and lumbar regions of the backbone and major joints; SPECT images: tissue uptake of ^99mTc (one month old normal CD1 mice, tail vein injection, 2.0×10^7 Bq (0.55 mCi), imaged 1.5, 3 and 4 hours post injection): accumulation of ^99mTc in the bones and joints; also recorded: uptake of the ^99mTc in the bones as expected
